Values quoted from earlier work as cited in patent US20060234993A1, “Use of androstane derivatives for enhancing physical performance” (priority 2005, published 2006).
Like-named read-outs stand apart in the source and are kept apart here.

Assays:
[1] = in vivo

## C[C@]12CC[C@H](O)CC1=CC[C@@H]1[C@@H]2CC[C@]2(C)C(=O)CC[C@@H]12 [DHEA, dehydroepiandrosterone]
[1]
  estrogenic and androgenic side effects, including gynecomastia, water retention (edema), fat retention, prostate enlargement, acne, hair loss: negative estrogenic and androgenic side effects

## C[C@]12CC[C@@H](O)C[C@H]1CC[C@@H]1[C@@H]2CC[C@]2(C)C(=O)CC[C@@H]12 [Etiocholanolone, 3-alpha (beta)-hydroxy-5β-androstan-17-one]
mice; normal mice
  body weight: reduce body weight
mice; obese mice
  body weight: reduce body weight
